The test system of this test is kdp c-di-AMP riboswitch transcript (5'-UTR of kdpFABC, run-off from -88 to +363 template) (RNA, riboswitch) AUAAAUCAUUCAUAAAAUUUCCAAAAAAACCUAAAAUCGCUGAGUUCCAGAAAUGGAGCGGGGGAACCAAUUUUGUGCAUCGUCACUUGGGGUGAAUCUUUCAGUUUUGAAAGUAGGGCUACUCUUUAGGCCCGAAUCCGACAGCUAACCUCGUAAGCGUUUAGAGAGGAGGUUUACUUUUUGUUGUUCAUUUUUUGAACACUGAGUAGAGCUCAGUGUUCUUUUUUAAUAUUUAAAUGGUAAAUUUUAACAAAAAAGAGGGGAUAGUUAUGUUAGAUGUUGUAAUGGUCGGGAUUUUUAUUUUAUUAGUUGCAUCGAUGGCAAGUCUUGCAAGUUGGUCAGAUAAAGUUGUGAAAGAAGGA
The test is described as follows: in vitro transcription termination (E. coli RNA polymerase), gel. The settings on record: 150 mM KCl, 10 mM MgCl2; 40 mM Tris-HCl pH 7.5, 37 °C; c-di-AMP 0-5 µM; termination rises 27% to 63%; functional, no constant.

SMILES strings stand for the structures.

For the molecule `Nc1ncnc2c1ncn2[C@@H]1O[C@@H]2COP(=O)(O)O[C@H]3[C@@H](O)[C@H](n4cnc5c(N)ncnc54)O[C@@H]3COP(=O)(O)O[C@H]2[C@H]1O`, the binding result is recorded as “yes”.

These data come from PMC6488665 (2019).
